Source: US11364275B2, “Linear lipopeptide paenipeptins and methods of using the same” (priority 2017, dated 2022)
Values after ≈ are worked out from the molar mass of the structure shown. “Also recorded” adds a separate entry of the source. Where a SMILES comes first, the peptide text is derived from it. [ ]: non-standard residue; d: D form. The star is where a group is joined. Dab = NCC[C@H](N)C(=O)O; Hexanoyl = CCCCCC(=O)*

How the values were obtained:
[1] = system: A. baumannii FDA-CDC AR 0052; conditions: FDA-CDC AR 0052
[2] = system: A. baumannii FDA-CDC AR 0037; conditions: A. baumannii AR 0037
[3] = system: methicillin-resistant S. aureus ATCC 43300; assay type: cell-based, Staphylococcus aureus; conditions: ATCC 43300
Experimental: (§3) The minimum inhibitory concentration (MIC) of paenipeptin analogues was determined using the broth microdilution method (Wirker, M. A. Methods for Dilution Antimicrobial Susceptibility Tests for Bacteria that Grow Aerobically: Approved Standard M07-A8; Clinical and Laboratory Standards Institute, Wayne, Pa., 2009). Seven reference strains (Acinetobacter baumannii ATCC 19606, Escherichia coli ATCC 25922, Klebsiella pneumoniae ATCC 13883, Pseudomonas aeruginosa ATCC 27853, Enterococcus faecium ATCC 19434, Staphylococcus aureus ATCC 29213 and methicillin-resistant S. aureus ATCC 43300) were subjected to MIC testing.
(§4) Paenipeptin analogues were two-fold diluted in tryptic soy broth (TSB; Becton Dickinson) and mixed with an equal volume of bacterial suspensions in TSB containing approximately 1.5×10^5 colony-forming units (CFU)/mL in a clear UV-sterilized 96-well microtiter plate (NBS, Corning Inc., Corning, N.Y.). […] The microtiter plate was incubated at 37° C. for 18-20 h.

[4] = system: K. pneumoniae FDA-CDC AR0097; assay: Time-kill kinetics in 95% human serum, alone and combined; assay type: cell-based, Klebsiella pneumoniae
Experimental: (§1) Bacterial viable counts were determined at 0, 2, 4, 6, and 24 h after antimicrobial treatment. Bacterial surviving counts at 24 h endpoints were subjected to analysis of variance (ANOVA) followed by Tukey's honest significant difference (HSD) tests using SPSS Statistics (version 24; SPSS, Inc., Chicago, Ill., USA).
To further test the therapeutic potential of paenipeptin analogues, the time-kill kinetics assays of paenipeptins alone or in combination with other antibiotics were performed in 95% human serum in vitro.

[5] = system: K. pneumoniae FDA-CDC AR 0034; conditions: K. pneumoniae AR 0034
[6] = system: A. baumannii FDA-CDC AR 0083; conditions: A. baumannii AR 0083
rabbit red blood cells = assay: Hemolytic activity; assay type: cell-based; conditions: for Hemolysis: relative to Triton X-100
Procedure, shortened: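 Washed defibrinated rabbit RBCs in PBS pH 7.2 incubated 30 min at 37 °C with paenipeptin analogues at 16–128 μg/mL final. Released hemoglobin read at 415 nm in the supernatant; % hemolysis relative to 0.1% Triton X-100.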

[7] = system: Enterococcus faecium ATCC 19434; assay type: cell-based; conditions: ATCC 19434
[8] = system: K. pneumoniae FDA-CDC AR 0097; conditions: K. pneumoniae AR 0097
[9] = system: K. pneumoniae FDA-CDC AR 0068
[10] = system: K. pneumoniae FDA-CDC AR 0080; conditions: K. pneumoniae AR 0080
[11] = system: Staphylococcus aureus ATCC 29213; assay type: cell-based; conditions: ATCC 29213
Experimental: as §3, §4

[12] = system: Acinetobacter baumannii ATCC 19606; assay type: cell-based; conditions: ATCC 19606
[13] = system: Klebsiella pneumoniae ATCC 13883; assay type: cell-based; conditions: ATCC 13883
Experimental: as §3, §4

[14] = system: K. pneumoniae FDA-CDC AR 0044
[15] = system: Escherichia coli ATCC 25922; assay type: cell-based; conditions: ATCC 25922
Experimental: as §3, §4

[16] = system: A. baumannii FDA-CDC AR 0063; assay: Time-kill kinetics in 95% human serum, alone and combined; assay type: cell-based, Acinetobacter baumannii; conditions: A. baumannii AR 0063, 24 h
Experimental: as §1
To further test the therapeutic potential of paenipeptin analogues, the time-kill kinetics assays of paenipeptins alone or in combination with other antibiotics were performed in 95% human serum in vitro. Without antimicrobial treatment, the population of A. baumannii FDA-CDC AR 0063 increased from 5.8 log to 9.3 log within 24 h. […] (FIG. 7A).

[17] = system: A. baumannii FDA-CDC AR 0063; conditions: A. baumannii AR 0063
[18] = system: Acinetobacter baumannii ATCC 19606; assay: MIC of antibiotics with or without paenipeptin analogues (potentiation); assay type: cell-based; conditions: A. baumannii ATCC 19606
From the text: (§2) Gram-negative bacteria, including Acinetobacter and Klebsiella, are intrinsically resistant to the hydrophobic antibiotic rifampicin.

[19] = system: Klebsiella pneumoniae ATCC 13883; assay: as above; assay type: cell-based; conditions: K. pneumoniae ATCC 13883
From the text: as §2

[20] = system: A. baumannii FDA-CDC AR 0063; assay type: cell-based, Acinetobacter baumannii; conditions: FDA-CDC AR 0063, 24 h
Experimental: as §1

[21] = system: Pseudomonas aeruginosa ATCC 27853; assay type: cell-based; conditions: ATCC 27853
Cytotoxicity, MTT assay = assay type: cell-based, human; conditions: human, HEK 293 cells
Experimental: Cytotoxicity of paenipeptin analogues was determined against a human kidney cell line (HEK 293) using MTT assays (Huang E, Yousef AE. 2014. Paenibacterin, a novel broad-spectrum lipopeptide antibiotic, neutralises endotoxins and promotes survival in a murine model of Pseudomonas aeruginosa-induced sepsis. Int J Antimicrob Agents 44: 74-77). Cell viability was measured at 24 h following the addition of lipopeptides at concentrations between 30-105 μg/ml. The viability of human embryonic kidney cells (HEK 293) decreased with the increase of paenipeptin concentration. The viability of HEK 293 cells in the presence of paenipeptin analogue 1 and 15 at 105 μg/ml was 61% and 67%, respectively (Table 10). The relatively low cytotoxicity of paenipeptin analogue 1 and 15 was correlated with their low hemolytic activity against red blood cells.

E. coli UAMS-ECPR2 = conditions: E. coli UAMS-ECPR2, polymyxin-resistant
Experimental: (§5) The minimum inhibitory concentration (MIC) of paenipeptin analogues was determined using the broth microdilution method (Wirker, M. A. Methods for Dilution Antimicrobial Susceptibility Tests for Bacteria that Grow Aerobically: Approved Standard M07-A8; Clinical and Laboratory Standards Institute, Wayne, Pa., 2009).
as §4
(§6) There were at least three independent experiments with one replicate in each experiment.

K. pneumoniae UAMS-KPPR1 = assay: MIC, polymyxin-resistant strain; assay type: cell-based, Klebsiella pneumoniae
Experimental: as §3, §4, §6

[22] = system: Klebsiella pneumoniae AR 0109; conditions: K. pneumoniae AR 0109, polymyxin-resistant
Experimental: as §5, §4, §6

E. coli UAMS-ECPR1 = conditions: E. coli UAMS-ECPR1, polymyxin-resistant
Experimental: as §5, §4, §6

K. pneumoniae UAMS-KPPR3 = assay: MIC, polymyxin-resistant strain; assay type: cell-based, Klebsiella pneumoniae
Experimental: as §3, §4, §6

[23] = system: Escherichia coli AR 0494 (mcr-1); conditions: E. coli AR 0494, mcr-1, polymyxin-resistant
Experimental: as §5, §4, §6

CCCCCC(=O)N[C@@H](CCN)C(=O)N[C@H](C(=O)N[C@@H](CCN)C(=O)N[C@H](Cc1ccccc1)C(=O)N[C@@H](CC(C)C)C(=O)N[C@@H](CCN)C(=O)N[C@@H](C(=O)N[C@@H](CC(C)C)C(=O)N[C@@H](CO)C(N)=O)C(C)C)[C@@H](C)CC [Analogue 1] (Hexanoyl-[Dab]I[Dab][dF]L[Dab][dV]LS-NH2)
MIC alone [1]: 2 to 4 µg/mL
MIC of clarithromycin at the presence of PMBN or paenipeptin analogue at 4 μg/ml [2]: 0.0313 μg/ml
MIC of rifampicin at the presence of PMBN or paenipeptin analogue at 4 μg/ml [2]: 0.0039 μg/ml
increase in antibiotic activity of clarithromycin ([2]; analogue at 4 μg/mL): 512 fold
MIC [3]: >32 µg/mL
log reduction, analogue 4 μg/ml in combination with clarithromycin 4 μg/ml ([4]; 24 h): 4.9 log
log reduction, analogue 4 μg/ml in combination with rifampicin 4 μg/ml ([4]; 24 h): 4.9 log
log inactivation, single agent at 4 μg/ml ([4]; within 24 h): 4.2 log
MIC of clarithromycin at the presence of PMBN or paenipeptin analogue at 4 μg/ml [5]: 0.25 μg/ml
MIC of rifampicin at the presence of PMBN or paenipeptin analogue at 4 μg/ml [5]: ≤0.0019 μg/ml
MIC of clarithromycin at the presence of PMBN or paenipeptin analogue at 4 μg/ml [6]: 16 μg/ml
MIC of rifampicin at the presence of PMBN or paenipeptin analogue at 4 μg/ml [6]: 0.25-0.5 μg/ml
Hemolysis (rabbit red blood cells; 16 μg/mL): 0.48 ± 0.64%
Hemolysis (rabbit red blood cells; 32 μg/mL): 0.41 ± 0.58%
Hemolysis (rabbit red blood cells; 64 μg/mL): 0.08 ± 0.85%
hemolytic activity (in words) (rabbit red blood cells; 128 μg/mL): little hemolysis; also recorded: nonhemolytic
Hemolysis (rabbit red blood cells; 128 μg/mL): 0.61 ± 0.25%
MIC [7]: >32 µg/mL
MIC of clarithromycin at the presence of PMBN or paenipeptin analogue at 4 μg/ml [8]: 0.0313-0.0625 μg/ml
MIC of rifampicin at the presence of PMBN or paenipeptin analogue at 4 μg/ml [8]: 0.0039-0.0078 μg/ml
MIC alone ([9]; FDA-CDC AR 0068): >32 µg/mL
MIC of clarithromycin at the presence of PMBN or paenipeptin analogue at 4 μg/ml ([9]; K. pneumoniae AR 0068): 1 μg/ml
MIC of rifampicin at the presence of PMBN or paenipeptin analogue at 4 μg/ml ([9]; K. pneumoniae AR 0068): 0.0039-0.0156 μg/ml
MIC of clarithromycin at the presence of PMBN or paenipeptin analogue at 4 μg/ml [10]: 0.0313 μg/ml
MIC of rifampicin at the presence of PMBN or paenipeptin analogue at 4 μg/ml [10]: 0.0625 μg/ml
MIC [11]: >32 µg/mL
MIC [12]: >32 µg/mL
MIC [13]: ≥32 µg/mL
MIC alone ([14]; FDA-CDC AR 0044): 16 µg/mL (≈ 14.7 µM)
MIC of clarithromycin at the presence of PMBN or paenipeptin analogue at 4 μg/ml ([14]; K. pneumoniae AR 0044): 0.0156 μg/ml
MIC of rifampicin at the presence of PMBN or paenipeptin analogue at 4 μg/ml ([14]; K. pneumoniae AR 0044): ≤0.0019 μg/ml
MIC [15]: 8 to 16 µg/mL
decrease of bacterial population, analogue 4 μg/ml in combination with rifampicin 4 μg/ml [16]: 2.7 log
log reduction, analogue 4 μg/ml in combination with clarithromycin 4 μg/ml [16]: 1.3 log
MIC of clarithromycin at the presence of PMBN or paenipeptin analogue at 4 μg/ml [17]: 0.0313 μg/ml
MIC of rifampicin at the presence of PMBN or paenipeptin analogue at 4 μg/ml [17]: ≤0.0019 μg/ml
MIC of rifampicin at 2 μg/mL of paenipeptin analogue [18]: 0.0078-0.0156 μg/ml
MIC of rifampicin at 4 μg/mL of paenipeptin analogue [18]: 0.00195-0.0039 μg/ml
Sensitization factor (rifampicin) ([18]; MIC without / with 4 μg/mL paenipeptin): 4,096-8,192
MIC of rifampicin at 2 μg/mL of paenipeptin analogue [19]: 0.0039 μg/ml
MIC of rifampicin at 4 μg/mL of paenipeptin analogue [19]: 0.00195 μg/ml
log reduction, analogue 4 μg/ml in combination with rifampicin 1 μg/ml [20]: 4.7-5.1 log
MIC [21]: 8 to 16 µg/mL
viability at 24 h, 30 µg/mL (Cytotoxicity, MTT assay): 85.2 ± 10.2%
viability at 24 h, 45 µg/mL (Cytotoxicity, MTT assay): 78.4 ± 11.2%
viability at 24 h, 60 µg/mL (Cytotoxicity, MTT assay): 78.4 ± 13.5%
viability at 24 h, 75 µg/mL (Cytotoxicity, MTT assay): 73.1 ± 11.3%
viability at 24 h, 90 µg/mL (Cytotoxicity, MTT assay): 69 ± 8.14%
viability at 24 h, 105 µg/mL (Cytotoxicity, MTT assay): 61 ± 6.38%

Polymyxin B [reference compound]
Minimum inhibitory concentration (E. coli UAMS-ECPR2): 32 µg/mL
Minimum inhibitory concentration (K. pneumoniae UAMS-KPPR1): >32 µg/mL
Minimum inhibitory concentration [22]: 16 to 32 µg/mL
Minimum inhibitory concentration (E. coli UAMS-ECPR1): 32 µg/mL
Minimum inhibitory concentration (K. pneumoniae UAMS-KPPR3): >32 µg/mL
Minimum inhibitory concentration [23]: 2 to 8 µg/mL
